T1: CtNcs2 (Thermochaetoides thermophila, UniProt G0SFJ9)
T1 construct: gene NCS2; codon-optimized, E. coli BL21(DE3) pRARE, pETM30 N-terminal 6xHis-GST tag (TEV-cleavable, optionally cleaved), GSTrap, heparin, size exclusion
T1 sequence (G0SFJ9 1-406): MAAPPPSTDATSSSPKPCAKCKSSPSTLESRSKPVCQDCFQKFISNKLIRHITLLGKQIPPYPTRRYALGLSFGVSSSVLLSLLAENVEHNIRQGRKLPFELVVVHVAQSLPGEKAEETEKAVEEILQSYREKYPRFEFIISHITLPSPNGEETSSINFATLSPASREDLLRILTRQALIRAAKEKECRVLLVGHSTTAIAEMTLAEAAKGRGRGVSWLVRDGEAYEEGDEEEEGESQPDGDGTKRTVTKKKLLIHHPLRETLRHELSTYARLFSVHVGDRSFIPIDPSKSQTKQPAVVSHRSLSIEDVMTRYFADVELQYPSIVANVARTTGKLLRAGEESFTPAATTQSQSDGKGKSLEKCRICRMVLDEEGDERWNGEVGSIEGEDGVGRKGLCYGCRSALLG


Legend:
[1] = biological target: T1, CtNcs2; test: thermal shift assay (SYPRO Orange); format: binding; conditions: 2 mM MgCl2, 20 mM Tris pH 8, 150 mM NaCl, 1 mM DTT
[2] = biological target: Ncs6 (Needs-Cla4-to-Survive 6), S. cerevisiae (S. cerevisiae, UniProt P53088 1-359); test: two-hybrid; conditions: partners not purified
Chain of Ncs6 (Needs-Cla4-to-Survive 6), S. cerevisiae (P53088 whole entry): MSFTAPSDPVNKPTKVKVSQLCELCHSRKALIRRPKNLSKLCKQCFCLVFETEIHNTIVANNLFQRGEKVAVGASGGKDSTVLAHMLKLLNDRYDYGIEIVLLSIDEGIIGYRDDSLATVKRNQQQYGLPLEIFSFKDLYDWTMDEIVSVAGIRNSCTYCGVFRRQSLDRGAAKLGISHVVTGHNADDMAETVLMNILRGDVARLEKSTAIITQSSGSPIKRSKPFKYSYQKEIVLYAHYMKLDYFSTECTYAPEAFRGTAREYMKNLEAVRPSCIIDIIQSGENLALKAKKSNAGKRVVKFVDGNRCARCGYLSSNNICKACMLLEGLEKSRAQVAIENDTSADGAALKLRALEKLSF

Molecule | Miller units (beta-galactosidase, two-hybrid) [2] [MU] | also measured
Nc1ncnc2c1ncn2[C@@H]1O[C@H](COP(=O)(O)OP(=O)(O)NP(=O)(O)O)[C@@H](O)[C@H]1O [AMP-PNP] | – | melting temperature ([1]; 1 mM AMP-PNP): stability of Ncs2 increases significantly, when it is bound to ATP, ADP or the non-hydrolysable AMP-PNP
Nc1ncnc2c1ncn2[C@@H]1O[C@H](COP(=O)(O)OP(=O)(O)O)[C@@H](O)[C@H]1O [ADP] | – | melting temperature ([1]; 1 mM ADP): stability of Ncs2 increases significantly, when it is bound to ATP, ADP or the non-hydrolysable AMP-PNP
Nc1ncnc2c1ncn2[C@@H]1O[C@H](COP(=O)(O)OP(=O)(O)OP(=O)(O)O)[C@@H](O)[C@H]1O [ATP] | – | melting temperature ([1]; 1 mM ATP): stability of Ncs2 increases significantly, when it is bound to ATP, ADP or the non-hydrolysable AMP-PNP
Ncs2* (Ncs2 H71L), S. cerevisiae (natural protein) MECQRCPASARNPATVESRKEKFCDECFIKFVSTKQRKQMMKDEYFRNLFKVIYPFEKEGSVSKILLPLSLSDSGSLVMLDIVHDLLLEQTKQHNNRTGFTVDVLTVFTEENVSVIKERMESLINEKMSQLNKISNIFNVHFIDVNEFFNNASEVSTFIIDNENFEIFSKSKSVDDSNILTLKEILGKYCLNNSSRSDLISIIKTQLIKHFAYENGYNAIMWGHSMTKLSEVIISLVVKGKGSQIATFLDSESFDTLNNKPCKYKNLYPMKDLLSVEIESFLQIRNLAQFLINVEETNVKPNCLIARKSLPSLGQQKLVKNMTINEITNKYFQDIQNDYSNIISTVLRTADKLTQPKSSMAKPSQCQICQSKIYTNPSNWLNRITVTSPYPVETTEEKYLFKQWQDSKLGQSHTHYVELLNEIKQGASNSLDVEDGDVKLCYGCLILLNTSIKDKNLVWPKVDTMDITANATNKNKELSQILDQFEINSDGEE | 252 | –
Ncs2^H71A, S. cerevisiae (natural protein) MECQRCPASARNPATVESRKEKFCDECFIKFVSTKQRKQMMKDEYFRNLFKVIYPFEKEGSVSKILLPLSASDSGSLVMLDIVHDLLLEQTKQHNNRTGFTVDVLTVFTEENVSVIKERMESLINEKMSQLNKISNIFNVHFIDVNEFFNNASEVSTFIIDNENFEIFSKSKSVDDSNILTLKEILGKYCLNNSSRSDLISIIKTQLIKHFAYENGYNAIMWGHSMTKLSEVIISLVVKGKGSQIATFLDSESFDTLNNKPCKYKNLYPMKDLLSVEIESFLQIRNLAQFLINVEETNVKPNCLIARKSLPSLGQQKLVKNMTINEITNKYFQDIQNDYSNIISTVLRTADKLTQPKSSMAKPSQCQICQSKIYTNPSNWLNRITVTSPYPVETTEEKYLFKQWQDSKLGQSHTHYVELLNEIKQGASNSLDVEDGDVKLCYGCLILLNTSIKDKNLVWPKVDTMDITANATNKNKELSQILDQFEINSDGEE | 130 | –
Ncs2^H71I, S. cerevisiae (natural protein) MECQRCPASARNPATVESRKEKFCDECFIKFVSTKQRKQMMKDEYFRNLFKVIYPFEKEGSVSKILLPLSISDSGSLVMLDIVHDLLLEQTKQHNNRTGFTVDVLTVFTEENVSVIKERMESLINEKMSQLNKISNIFNVHFIDVNEFFNNASEVSTFIIDNENFEIFSKSKSVDDSNILTLKEILGKYCLNNSSRSDLISIIKTQLIKHFAYENGYNAIMWGHSMTKLSEVIISLVVKGKGSQIATFLDSESFDTLNNKPCKYKNLYPMKDLLSVEIESFLQIRNLAQFLINVEETNVKPNCLIARKSLPSLGQQKLVKNMTINEITNKYFQDIQNDYSNIISTVLRTADKLTQPKSSMAKPSQCQICQSKIYTNPSNWLNRITVTSPYPVETTEEKYLFKQWQDSKLGQSHTHYVELLNEIKQGASNSLDVEDGDVKLCYGCLILLNTSIKDKNLVWPKVDTMDITANATNKNKELSQILDQFEINSDGEE | 109 | –

From publication PMC10450187, “Ncs2* mediates in vivo virulence of pathogenic yeast through sulphur modification of cytoplasmic transfer RNA” (Nucleic Acids Research, 2023)
